For eleven compounds, MIC, IC50 and solubility results are on record in ChEMBL document CHEMBL1155988, “Spiro-naphthyridinone piperidines as inhibitors of S. aureus and E. coli enoyl-ACP reductase (FabI)” (Bioorg Med Chem Lett, 2009).

Broadly, the MIC is the least concentration at which growth counts as inhibited. A higher MIC goes with a less susceptible organism. A word on the IC50: it is the midpoint of a concentration-inhibition curve. By solubility is commonly meant the concentration that dissolves in the medium under given conditions.

Series [1] relates to Escherichia coli. As to the kind of experiment: Antibacterial activity against Escherichia coli AG100A […] by microdilution method. In kind it is functional. For orientation: Dilution methods test growth across graded concentrations, often in twofold steps.
Series [2] addresses T1, Enoyl-[acyl-carrier-protein] reductase [NADH] FabI (Escherichia coli K-12, UniProt P0AEK4).
T1 sequence (P0AEK4 whole entry): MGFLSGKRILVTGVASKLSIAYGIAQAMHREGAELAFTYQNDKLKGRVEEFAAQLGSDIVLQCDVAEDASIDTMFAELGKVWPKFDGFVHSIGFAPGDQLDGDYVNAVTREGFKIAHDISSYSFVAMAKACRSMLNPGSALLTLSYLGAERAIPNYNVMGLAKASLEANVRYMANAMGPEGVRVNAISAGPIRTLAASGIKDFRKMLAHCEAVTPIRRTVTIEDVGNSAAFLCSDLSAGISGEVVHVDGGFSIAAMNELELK
As to the kind of experiment: Inhibition of Escherichia coli FabI assessed as effect on NAD(P)H consumption.

Series [3] concerns Staphylococcus aureus. Put plainly: Antibacterial activity against methicillin-resistant Staphylococcus aureus 43300 by microdilution method. In kind it is functional.
Series [4] relates to Staphylococcus aureus. Put plainly: Antibacterial activity against Staphylococcus aureus 29213 by microdilution method. In kind it is functional.
A short description of series [5]: Aqueous solubility at pH 7.4. It is filed as physicochemical.
The nature of series [6]: Aqueous solubility at pH 4.0. It is filed as physicochemical.
For series [7], the target named is T2, Enoyl-[acyl-carrier-protein] reductase [NADPH] FabI (Staphylococcus aureus, UniProt Q6GI75).
T2 sequence (Q6GI75 whole entry): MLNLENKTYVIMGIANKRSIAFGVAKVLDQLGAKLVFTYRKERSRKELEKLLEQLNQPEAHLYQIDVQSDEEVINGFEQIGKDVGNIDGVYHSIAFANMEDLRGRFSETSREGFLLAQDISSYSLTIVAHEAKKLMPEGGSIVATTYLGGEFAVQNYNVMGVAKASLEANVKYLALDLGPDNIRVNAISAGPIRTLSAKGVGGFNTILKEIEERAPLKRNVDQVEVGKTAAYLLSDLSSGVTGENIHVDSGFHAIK
As to the kind of experiment: Inhibition of Staphylococcus aureus FabI.

In brackets after ≈: the same amount, converted by molar mass. Some results are limits rather than exact numbers.

Turning to `CN(Cc1cc2ccccc2n1C)C(=O)/C=C/c1cnc2c(c1)CCC(=O)N2`, the figures for the MIC in series [1], in series [3] and in series [4] were ≤ 0.063 µg/mL, 0.016 µg/mL (≈ 0.0427 µM) and ≤ 0.016 µg/mL, respectively. Also, the IC50 in series [2] is 139 nM. For the same compound, the solubility in series [5] was determined as 5.8 µg/mL (≈ 15.5 µM).

On to `CCCOc1c(CN(C)C(=O)/C=C/c2cnc3c(c2)CC2(CCNCC2)C(=O)N3)cccc1OC`, for which the solubility in series [6] came to 700 µg/mL (≈ 1460 µM); in series [5] it was 520 µg/mL (≈ 1090 µM). The half-inhibitory concentration (IC50) in series [7] came to 71 nM. For the same compound, the MIC in series [1] was 2 µg/mL (≈ 4.18 µM); in series [3], 0.5 µg/mL (≈ 1.04 µM); in series [4] it was 0.125 µg/mL (≈ 0.261 µM).

As to `Cc1c(CN(C)C(=O)/C=C/c2cnc3c(c2)CN(CCN2CCOCC2)C(=O)N3)sc2ccccc12`, the results for the solubility in series [6] and in series [5] were > 67 µg/mL and 6.1 µg/mL (≈ 12.1 µM), respectively. Also, the results for the concentration for half-maximal inhibition (IC50) in series [7] and in series [2] were 26 nM and 7 nM, respectively. Moreover, the MIC in series [1], in series [3] and in series [4] was ≤ 0.063 µg/mL throughout.

Take `Cc1c(CN(C)C(=O)/C=C/c2cnc3c(c2)CC2(CCNCC2)C(=O)N3)sc2ccccc12`: the solubility in series [6] stood at 22 µg/mL (≈ 47.8 µM); in series [5], 4.8 µg/mL (≈ 10.4 µM). For the same compound, the figures for the IC50 in series [7] and in series [2] were 48 nM and 0.4 nM, respectively. Also, the MIC is ≤ 0.063 µg/mL in series [1], 0.063 µg/mL (≈ 0.137 µM) in series [3] and ≤ 0.016 µg/mL in series [4].

`Cc1c(CN(C)C(=O)/C=C/c2cnc3c(c2)CCC(=O)N3)sc2ccccc12`: 30 nM corresponded to half-maximal inhibition in series [7] (IC50). Also, the MIC in series [1] turned out to be 4 µg/mL (≈ 10.2 µM); in series [3] it was 0.063 µg/mL (≈ 0.161 µM); in series [4] it was 0.125 µg/mL (≈ 0.319 µM).

On to `Cc1c(CN(C)C(=O)/C=C/c2cnc3c(c2)CC2(CCN(C)CC2)C(=O)N3)sc2ccccc12`, for which the solubility in series [6] worked out at 360 µg/mL (≈ 758 µM); in series [5], 110 µg/mL (≈ 232 µM). Besides, the IC50 came to 14 nM in series [7] and 2.4 nM in series [2]. Further, the MIC in series [1] was ≤ 0.063 µg/mL; in series [3] it was ≤ 0.016 µg/mL; in series [4] it was ≤ 0.016 µg/mL.

As to `Cc1c(CN(C)C(=O)/C=C/c2cnc3c(c2)CC2(CCN(C)CC2)C(=O)N3)sc2ccc(F)cc12`, the solubility was found to be 790 µg/mL (≈ 1600 µM) in series [6] and 110 µg/mL (≈ 223 µM) in series [5]. Further, the figures for the IC50 in series [7] and in series [2] were 28 nM and 24 nM, respectively. Moreover, the MIC in series [1] is ≤ 0.063 µg/mL; in series [3], ≤ 0.016 µg/mL; in series [4], ≤ 0.016 µg/mL.

Turning to `Cc1c(CN(C)C(=O)/C=C/c2cnc3c(c2)CC2(CCN(C)CC2)C(=O)N3)oc2ccccc12`, the solubility in series [6] amounted to 83 µg/mL (≈ 181 µM); in series [5], 43 µg/mL (≈ 93.8 µM). Besides, the IC50 stood at 20 nM in series [7] and 1.8 nM in series [2]. Also, the MIC in series [1] is 0.25 µg/mL (≈ 0.545 µM); in series [3], ≤ 0.016 µg/mL; in series [4], ≤ 0.016 µg/mL.

As for `CCCOc1c(CN(C)C(=O)/C=C/c2cnc3c(c2)CC2(CCN(C)CC2)C(=O)N3)cccc1OC`, the solubility in series [6] was 1500 µg/mL (≈ 3040 µM); in series [5] it was 1000 µg/mL (≈ 2030 µM). Further, the IC50 in series [7] worked out at 26 nM; in series [2] it was 55 nM. Besides, the minimal inhibitory concentration (MIC) in series [1] is 4 µg/mL (≈ 8.12 µM); in series [3] it was 0.125 µg/mL (≈ 0.254 µM); in series [4], 0.031 µg/mL (≈ 0.0629 µM).

As to `CN(Cc1cc2ccccc2n1C)C(=O)/C=C/c1cnc2c(c1)CC1(CCNCC1)C(=O)N2`, the solubility in series [6] and in series [5] was > 100 µg/mL each time. Also, the IC50 was 132 nM in series [7] and 17 nM in series [2]. Also, the MIC in series [1] amounted to 0.5 µg/mL (≈ 1.13 µM); in series [3], 2 µg/mL (≈ 4.51 µM); in series [4] it was 0.5 µg/mL (≈ 1.13 µM).

Regarding `Cc1c(CN(C)C(=O)/C=C/c2cnc3c(c2)CC2(CCNCC2)C(=O)N3)oc2ccccc12`, the solubility in series [6] turned out to be 1500 µg/mL (≈ 3370 µM); in series [5], 100 µg/mL (≈ 225 µM). The IC50 in series [7] worked out at 49 nM; in series [2], 0.7 nM. In addition, the MIC was ≤ 0.063 µg/mL in series [1], 0.031 µg/mL (≈ 0.0697 µM) in series [3] and 0.031 µg/mL (≈ 0.0697 µM) in series [4].
